What was measured:
[1] = tested on: patients with recent onset RA; assay: MTX monotherapy efficacy in recent-onset RA patients (BeSt study subcohort), DAS response at 6 months; format: in vivo, human
Text: The 205 patients enrolled in this study comprised a subcohort of the 508 patients who participated in the BeSt study. (5) The BeSt study is a randomized, multicenter, single-blinded, clinical study comparing the clinical efficacy of four different treatment strategies in recent onset RA including sequential monotherapy (n=126 starting with MTX), step up to combination therapy of MTX with sulfasalazine (SSZ, n=121 starting with MTX), initial combination therapy with MTX, SSZ and a high tapered dose of prednisolone (n=133), or initial biologic therapy with infliximab plus MTX (n=128). Inclusion criteria for patients in the study comprise the American College of Rheumatology (ACR) 1987 criteria for RA (23), an age ≧18 years, and a disease duration of <2 years. Patients were also required to have active RA, defined as ≧6 swollen joints (out of 66) and ≧6 tender joints (out of 68) and either an erythrocyte sedimentation rate (ESR) ≧28 mm/hour or a score of ≧20 mm on 100 mm visual analogue scale (VAS) for patient's assessment of global health (0=best, 100=worst). […]
Patients allocated initial monotherapy with MTX with available DNA samples (n=205) were included in the current analysis. […] A research nurse who was blinded to the allocated treatment group assessed the DAS every 3 months. […]

RA patients = assay: Replication cohort of RA patients on MTX monotherapy (BeSt and UMCN), response at 6 months; format: in vivo, human; conditions: replication group n=38 (n=17 responders); average MTX dosage 19 mg weekly (range 5-25 mg weekly)
Description: Thirty-eight patients were recruited to replicate the genetic model. The validation cohort data were collected after development of the predictive model, but the investigators were blinded to either the clinical parameters or the genotyping results for the replication group. Fourteen patients were available from the BeSt study; they were treated with initial MTX monotherapy, but DNA samples were obtained after the clinical pharmacogenetic model was developed. Twenty-four patients were available from the RA cohort of the rheumatology department at the University Medical Center Nijmegen (UMCN), consisting of 553 patients (5, 51). Patients were eligible for the replication cohort if they fulfilled the ACR 1987 criteria for RA, started with MTX monotherapy, had not been treated previously with DMARDs other than antimalarial agents, and had disease duration of less than 2 years. In addition, clinical data comprising the prediction model and DNA samples had to be available. In the UMCN cohort, 352 patients were recorded as having received MTX at any time point. […]
The response at 6 months after starting MTX treatment in the group of RA patients (n=38) in the replication model was 45% (n=17), with an average MTX dosage of 19 mg weekly (range 5-25 mg weekly). […] The calculated simple scores in the replication group of RA patients ranged from 1 to 9. […]

SMILES: CN(Cc1cnc2nc(N)nc(N)c2n1)c1ccc(C(=O)N[C@@H](CCC(=O)O)C(=O)O)cc1 [MTX, Methotrexate]
- responders (DAS of ≦2.4, good clinical response) ([1]; at 6 months of treatment with MTX, oral MTX 7.5 mg weekly increasing to 15 mg, stepwise to 25 mg weekly, with folic acid 1 mg daily, 186 patients evaluable (n=87 responders)): 47 % of patients
- patients who discontinued MTX permanently after experiencing ADEs ([1]; of the 205 patients, within first 6 months): 10 patients
- response at 6 months after starting MTX treatment (RA patients): 45%

From US8073630B2, “Pharacogenetic method for prediction of the efficacy of methotrexate monotherapy in recent-onset arthritis” (Exagen Diagnostics, Inc., priority 2006, dated 2011)
